Consider one molecule from patent US10000488B2, “Heterocyclic compound” (TAKEDA PHARMACEUTICAL COMPANY LIMITED, priority 2014, dated 2018).

For assay [1], the target named is T1, RORγt (Homo sapiens, UniProt P51449).
T1 sequence (P51449 1-497 isoform P51449-2): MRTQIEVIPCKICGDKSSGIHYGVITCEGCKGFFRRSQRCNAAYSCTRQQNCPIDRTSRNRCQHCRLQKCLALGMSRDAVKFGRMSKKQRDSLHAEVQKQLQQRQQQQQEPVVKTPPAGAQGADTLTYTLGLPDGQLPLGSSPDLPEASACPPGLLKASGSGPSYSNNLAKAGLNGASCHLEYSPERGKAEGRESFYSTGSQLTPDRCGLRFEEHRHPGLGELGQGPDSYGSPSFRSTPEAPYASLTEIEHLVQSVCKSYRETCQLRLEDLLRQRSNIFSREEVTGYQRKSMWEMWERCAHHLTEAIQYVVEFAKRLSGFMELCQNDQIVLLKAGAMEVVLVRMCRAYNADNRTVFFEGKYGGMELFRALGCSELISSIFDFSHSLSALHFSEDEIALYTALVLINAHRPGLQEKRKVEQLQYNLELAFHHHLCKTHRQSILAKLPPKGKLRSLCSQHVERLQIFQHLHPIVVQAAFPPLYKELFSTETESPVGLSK
The experiment in a line: RORγt binding test using fluorescent-labeled synthetic ligand (TR-FRET). The settings on record: test compound 1 μM; read-out: binding inhibitory rate (%) of fluorescent-labeled synthetic ligand to RORγt at test compound 1 μM. Put shortly: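 Compound displacement of a fluorescent-labeled synthetic ligand from His-tagged RORγt was read by TR-FRET with a terbium anti-His antibody. Buffer was 20 mM Tris-HCl pH 7.5, 100 mM NaCl, 1 mM DTT and 0.1% BSA, with stocks of 240 nM protein, 12 μM ligand and 8 nM antibody (pre-mix, not final). Incubations were 20 min plus 20 min at room temperature, with excitation at 320 nm, emission at 520 nm and a 100 μs delay.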
A general note: Time-resolved FRET reads energy transfer from a long-lived donor to a nearby acceptor.

Assay [2] concerns the target T1, RORγt. The experiment in a line: Cofactor recruitment test (Alpha Screen, biotinylated SRC-1 peptide). The settings on record: read-out: signal value inhibitory rate (%) at test compound 1 μM. It is filed as biochemical. As for the experimental part: Cofactor Recruitment Test
Cofactor recruitment test was performed by Alpha Screen (Histidine Detection Kit, PerkinElmer) method. First, a test compound was diluted with an assay buffer (50 mM Tris-HCl (pH 7.5), 50 mM KCl, 1 mM DTT, 0.1% BSA) and added to a 384 well plate by 5 μL. […] The mixture was stood in a dark place for 1 hr, and the signal value was measured by Envision (PerkinElmer).

Assay [3] addresses T1, RORγt. In words: Jurkat reporter test (human IL-17 ROR response element luciferase reporter, RORγt vector). It is filed as cell-based. To be noted: test compound 3 μM; Jurkat cells; read-out: luminescence level inhibitory rate (%) at test compound 3 μM. Put shortly: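 Jurkat cells were electroporated (1350 V, 10 ms, 3 pulses) with the reporter constructs and plated in RPMI with 10% lipid-reduced FCS, 10 mM HEPES pH 7.5 and 5 μM lovastatin. After overnight culture with compound, luciferase activity was measured by luminescence following a 10 min room-temperature incubation with Bright-Glo.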
In general terms: In a reporter assay the amount or activity of a reporter protein is the signal.

Turning to `CC(C)n1c(=O)n(CC2CC2)c(=O)c2cc(NC(=O)N3CCNC(C(=O)Nc4ccc(C#N)c(Cl)c4)C3)ccc21` (stereo not drawn) [Example 82, N^3-(3-chloro-4-cyanophenyl)-N^1-(3-(cyclopropylmethyl)-1-isopropyl-2,4-dioxo-1,2,3,4-tetrahydroquinazolin-6-yl)piperazine-1,3-dicarboxamide], the inhibition at 1 µM stood at 101% at RORγt [1] and 103% on RORγt [2]. Besides, the inhibition at 3 µM on RORγt [3] is 102%.
